# Key:
# [1] = test system: persian speedwell; assay: Test Example 5: herbicidal effect by foliage application, plastic box (Table 20, symbol R); assay type: in vivo, Persian speedwell (Veronica persica); settings: foliage application, 320 g/ha, three weeks after application
# Summary of the method: (§1)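 Foliar spray test: emulsion formulation diluted in water to a set application rate, sprayed onto 14-day-old plants raised in diluvial soil at 25° C to 30° C under glass. Both herbicidal effect and crop effect rated visually three weeks later.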
# [2] = test system: barnyard grass; assay: Test Example 3: herbicidal effect by foliage application, Wagner pot (Table 18, symbol H); assay type: in vivo, barnyard grass (Echinochloa crus-galli); settings: 320 g/ha
# Summary of the method: (§2)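 Plants were sown in alluvial soil held under 0.1–0.5 cm standing water and grown 14 days in a greenhouse at 25–30 °C. An emulsifiable formulation, water-diluted to the set dose, was then sprayed onto the foliage, and effects were scored three weeks later using previously defined criteria.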
# [3] = test system: southern crabgrass; assay: Test Example 5: herbicidal effect by foliage application, plastic box (Table 20, symbol F); assay type: in vivo, southern crabgrass (Digitaria ciliaris); settings: 320 g/ha
# Summary of the method: as §1
# [4] = test system: Chinese sprangletop; assay: Test Example 3: herbicidal effect by foliage application, Wagner pot (Table 18, symbol D); assay type: in vivo, chinese sprangletop (Leptochloa chinensis); settings: 320 g/ha
# Summary of the method: as §2
# [5] = test system: rice flat sedge; assay: Test Example 3: herbicidal effect by foliage application, Wagner pot (Table 18, symbol E); assay type: in vivo, rice flat sedge (Cyperus iria); settings: 320 g/ha
# Summary of the method: as §2
# [6] = test system: barnyard grass; assay: Test Example 4: herbicidal effect by soil treatment (Table 19, symbol H); assay type: in vivo, barnyard grass (Echinochloa crus-galli); settings: amount of applied herbicide 320 g/ha
# Summary of the method: (§3)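 Step 1: sow seeds in sterilized diluvial soil, cover ~1.5 cm. Step 2: spray diluted emulsion onto soil surface at predetermined rate. Step 3: greenhouse, 25–30° C, three weeks. Step 4: grade effect on each plant by earlier criteria.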
# [7] = test system: oval-leafed pondweed; assay: Test Example 1: herbicidal activity, application before weed generation under submerged conditions (Table 16, symbol C); assay type: in vivo, oval-leafed pondweed (Monochoria vaginalis); settings: 320 g/ha applied herbicide
# Summary of the method: (§4)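 Alluvial soil was flooded to 4 cm depth, weed seeds were sown mixed and 2.5-leaf rice seedlings were transplanted. On sowing day, the compound's emulsion, diluted in water to a set dose, was applied to the water surface. Plants grew at 25–30 °C and were scored 0–5 after three weeks.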
# [8] = test system: Italian ryegrass; assay: Test Example 4: herbicidal effect by soil treatment (Table 19, symbol K); assay type: in vivo, Italian ryegrass (Lolium multiflorum); settings: amount of applied herbicide 320 g/ha
# Summary of the method: as §3
# [9] = test system: chickweed; assay: Test Example 5: herbicidal effect by foliage application, plastic box (Table 20, symbol P); assay type: in vivo, common chickweed (Stellaria media); settings: foliage application, 320 g/ha, three weeks after application
# Summary of the method: as §1
# [10] = test system: redroot pigweed; assay: Test Example 5: herbicidal effect by foliage application, plastic box (Table 20, symbol N); assay type: in vivo, redroot pigweed (Amaranthus retroflexus); settings: 320 g/ha
# Summary of the method: as §1
# [11] = test system: velvetleaf; assay: Test Example 5: herbicidal effect by foliage application, plastic box (Table 20, symbol M); assay type: in vivo, velvetleaf (Abutilon theophrasti); settings: 320 g/ha
# Summary of the method: as §1
# [12] = test system: late watergrass; assay: Test Example 1: herbicidal activity, application before weed generation under submerged conditions (Table 16, symbol A); assay type: in vivo, late watergrass (Echinochloa oryzicola); settings: 320 g/ha applied herbicide
# Summary of the method: as §4
# [13] = test system: redroot pigweed; assay: Test Example 4: herbicidal effect by soil treatment (Table 19, symbol N); assay type: in vivo, redroot pigweed (Amaranthus retroflexus); settings: amount of applied herbicide 320 g/ha
# Summary of the method: as §3
# [14] = test system: blackgrass; assay: Test Example 4: herbicidal effect by soil treatment (Table 19, symbol J); assay type: in vivo, blackgrass (Alopecurus myosuroides); settings: amount of applied herbicide 320 g/ha
# Summary of the method: as §3
# [15] = test system: Japanese bulrush; assay: Test Example 1: herbicidal activity, application before weed generation under submerged conditions (Table 16, symbol B); assay type: in vivo, Japanese bulrush (Schoenoplectus juncoides); settings: 320 g/ha applied herbicide
# Summary of the method: as §4
# [16] = test system: oval-leafed pondweed; assay: Test Example 2: herbicidal activity, application during weed generation under submerged conditions (Table 17, symbol C); assay type: in vivo, oval-leafed pondweed (Monochoria vaginalis); settings: AAH 320 g/ha; application during weed generation, submerged conditions
# Protocol: (§5) [Test Example 2] Herbicidal Activity Test by Application during Weed Generation under Submerged Conditions After alluvial soil was placed into 1/10000 are of Wagner pot, water was poured and mixed to form a submerged condition having a water depth of 4 cm. Seeds of late watergrass, Japanese bulrush, and oval-leafed pondweed were sowed in a mixed manner in the aforementioned pot, and the pot was placed in a greenhouse at 25° C. to 30° C. for growth of the plants. When late watergrass, Japanese bulrush, and oval-leafed pondweed were grown to one leaf stage to two leaf stage, the emulsion agent of the compound of the present invention prepared according to Formulation Example 2 was diluted with water so as to achieve a predetermined herbicide amount, and the diluted emulsion agent was applied to the surface of the water. Three weeks after the herbicide application, the effect of the herbicide on each plant was evaluated according to the criteria of Test Example 1.
# [17] = test system: wild oat; assay: Test Example 4: herbicidal effect by soil treatment (Table 19, symbol I); assay type: in vivo, wild oat (Avena fatua); settings: amount of applied herbicide 320 g/ha
# Summary of the method: as §3
# [18] = test system: lambsquarters; assay: Test Example 5: herbicidal effect by foliage application, plastic box (Table 20, symbol O); assay type: in vivo, lambsquarters (Chenopodium album); settings: 320 g/ha
# Summary of the method: as §1
# [19] = test system: windgrass; assay: Test Example 5: herbicidal effect by foliage application, plastic box (Table 20, symbol L); assay type: in vivo, windgrass (Apera spica-venti); settings: foliage application, 320 g/ha, three weeks after application
# Summary of the method: as §1
# [20] = test system: green foxtail; assay: Test Example 4: herbicidal effect by soil treatment (Table 19, symbol G); assay type: in vivo, green foxtail (Setaria viridis); settings: amount of applied herbicide 320 g/ha
# Summary of the method: as §3
# [21] = test system: wild oat; assay: Test Example 5: herbicidal effect by foliage application, plastic box (Table 20, symbol I); assay type: in vivo, wild oat (Avena fatua); settings: foliage application, 320 g/ha, three weeks after application
# Summary of the method: as §1
# [22] = test system: blackgrass; assay: Test Example 5: herbicidal effect by foliage application, plastic box (Table 20, symbol J); assay type: in vivo, blackgrass (Alopecurus myosuroides); settings: foliage application, 320 g/ha, three weeks after application
# Summary of the method: as §1
# [23] = test system: southern crabgrass; assay: Test Example 4: herbicidal effect by soil treatment (Table 19, symbol F); assay type: in vivo, southern crabgrass (Digitaria ciliaris); settings: amount of applied herbicide 320 g/ha
# Summary of the method: as §3
# [24] = test system: Italian ryegrass; assay: Test Example 5: herbicidal effect by foliage application, plastic box (Table 20, symbol K); assay type: in vivo, Italian ryegrass (Lolium multiflorum); settings: foliage application, 320 g/ha, three weeks after application
# Summary of the method: as §1
# [25] = test system: Japanese bulrush; assay: Test Example 2: herbicidal activity, application during weed generation under submerged conditions (Table 17, symbol B); assay type: in vivo, Japanese bulrush (Schoenoplectus juncoides); settings: AAH 320 g/ha; application during weed generation, submerged conditions
# Protocol: as §5
# [26] = test system: barnyard grass; assay: Test Example 5: herbicidal effect by foliage application, plastic box (Table 20, symbol H); assay type: in vivo, barnyard grass (Echinochloa crus-galli); settings: 320 g/ha
# Summary of the method: as §1
# [27] = test system: velvetleaf; assay: Test Example 4: herbicidal effect by soil treatment (Table 19, symbol M); assay type: in vivo, velvetleaf (Abutilon theophrasti); settings: amount of applied herbicide 320 g/ha
# Summary of the method: as §3
# [28] = test system: green foxtail; assay: Test Example 5: herbicidal effect by foliage application, plastic box (Table 20, symbol G); assay type: in vivo, green foxtail (Setaria viridis); settings: 320 g/ha
# Summary of the method: as §1
# [29] = test system: late watergrass; assay: Test Example 2: herbicidal activity, application during weed generation under submerged conditions (Table 17, symbol A); assay type: in vivo, late watergrass (Echinochloa oryzicola); settings: AAH 320 g/ha; application during weed generation, submerged conditions
# Protocol: as §5
# [30] = test system: lambsquarters; assay: Test Example 4: herbicidal effect by soil treatment (Table 19, symbol O); assay type: in vivo, lambsquarters (Chenopodium album); settings: amount of applied herbicide 320 g/ha
# Summary of the method: as §3
# [31] = foliage application, three weeks after application
# [32] = foliage application after 14-day growth, evaluated three weeks after application
structure (smiles),measurement,setting,value
CCOc1ccc(-c2sc3ccccc3c2-c2c(O)c(C)nn(C)c2=O)cc1 [1-013],"herbicidal effect grade, R: persian speedwell",[1],5 (Herbicidal rate of 90% or more (almost completely withered))
same,"herbicidal effect on H (barnyard grass), rating 0-5",[2],5 (Herbicidal rate of 90% or more (almost completely withered))
same,"herbicidal effect grade, F: southern crabgrass",[3]; [31],0 (Herbicidal rate of 5% or less (almost no effect))
same,"herbicidal effect on D (Chinese sprangletop), rating 0-5",[4],1 (Herbicidal rate of 5% or more and less than 20%)
same,"herbicidal effect on E (rice flat sedge), rating 0-5",[5],5 (Herbicidal rate of 90% or more (almost completely withered))
same,"herbicidal effect rating, H: barnyard grass",[6],4 (Herbicidal rate of 70% or more and less than 90%)
same,Herbicidal effect on C: oval-leafed pondweed (grade 0-5),[7],3 (Herbicidal rate of 40% or more and less than 70%)
same,"herbicidal effect rating, K: Italian ryegrass",[8],0 (Herbicidal rate of 5% or less (almost no effect))
same,"herbicidal effect grade, P: chickweed",[9],5 (Herbicidal rate of 90% or more (almost completely withered))
same,"herbicidal effect grade, N: redroot pigweed",[10]; [31],3 (Herbicidal rate of 40% or more and less than 70%)
same,"herbicidal effect grade, M: velvetleaf",[11]; [31],5 (Herbicidal rate of 90% or more (almost completely withered))
same,Herbicidal effect on A: late watergrass (grade 0-5),[12],4 (Herbicidal rate of 70% or more and less than 90%)
same,"herbicidal effect rating, N: redroot pigweed",[13],3 (Herbicidal rate of 40% or more and less than 70%)
same,"herbicidal effect rating, J: blackgrass",[14],0 (Herbicidal rate of 5% or less (almost no effect))
same,Herbicidal effect on B: Japanese bulrush (grade 0-5),[15],4 (Herbicidal rate of 70% or more and less than 90%)
same,"herbicidal effect rating, C: oval-leafed pondweed",[16],3 (Herbicidal rate of 40% or more and less than 70%)
same,"herbicidal effect rating, I: wild oat",[17],0 (Herbicidal rate of 5% or less (almost no effect))
same,"herbicidal effect grade, O: lambsquarters",[18]; [31],3 (Herbicidal rate of 40% or more and less than 70%)
same,"herbicidal effect grade, L: windgrass",[19],0 (Herbicidal rate of 5% or less (almost no effect))
same,"herbicidal effect rating, G: green foxtail",[20],5 (Herbicidal rate of 90% or more (almost completely withered))
same,"herbicidal effect grade, I: wild oat",[21],0 (Herbicidal rate of 5% or less (almost no effect))
same,"herbicidal effect grade, J: blackgrass",[22],0 (Herbicidal rate of 5% or less (almost no effect))
same,"herbicidal effect rating, F: southern crabgrass",[23],0 (Herbicidal rate of 5% or less (almost no effect))
same,"herbicidal effect grade, K: Italian ryegrass",[24],3 (Herbicidal rate of 40% or more and less than 70%)
same,"herbicidal effect rating, B: Japanese bulrush",[25],3 (Herbicidal rate of 40% or more and less than 70%)
same,"herbicidal effect grade, H: barnyard grass",[26]; [31],4 (Herbicidal rate of 70% or more and less than 90%)
same,"herbicidal effect rating, M: velvetleaf",[27],0 (Herbicidal rate of 5% or less (almost no effect))
same,"herbicidal effect grade, G: green foxtail",[28]; [31],5 (Herbicidal rate of 90% or more (almost completely withered))
COc1ccc2c(-c3c(O)c(C)nn(C)c3=O)c(-c3ccc(OC(F)(F)F)cc3)sc2c1 [3-170],herbicidal effect on barnyard grass (H),[2],3 (Herbicidal rate of 40% or more and less than 70%)
same,herbicidal effect on F: southern crabgrass (evaluation grade 0-5),[3]; [32],0 (Herbicidal rate of 5% or less (almost no effect))
same,herbicidal effect on Chinese sprangletop (D),[4],0 (Herbicidal rate of 5% or less (almost no effect))
same,herbicidal effect on rice flat sedge (E),[5],0 (Herbicidal rate of 5% or less (almost no effect))
same,"Herbicidal effect by soil treatment, H: barnyard grass",[6],0 (Herbicidal rate of 5% or less (almost no effect))
same,herbicidal effect on N: redroot pigweed (evaluation grade 0-5),[10]; [32],4 (Herbicidal rate of 70% or more and less than 90%)
same,herbicidal effect on M: velvetleaf (evaluation grade 0-5),[11]; [32],3 (Herbicidal rate of 40% or more and less than 70%)
same,"Herbicidal effect by soil treatment, N: redroot pigweed",[13],4 (Herbicidal rate of 70% or more and less than 90%)
same,"herbicidal effect rating, C: oval-leafed pondweed",[16],0 (Herbicidal rate of 5% or less (almost no effect))
same,herbicidal effect on O: lambsquarters (evaluation grade 0-5),[18]; [32],5 (Herbicidal rate of 90% or more (almost completely withered))
same,"herbicidal effect rating, A: late watergrass",[29],2 (Herbicidal rate of 20% or more and less than 40%)
same,"Herbicidal effect by soil treatment, G: green foxtail",[20],0 (Herbicidal rate of 5% or less (almost no effect))
same,"Herbicidal effect by soil treatment, O: lambsquarters",[30],1 (Herbicidal rate of 5% or more and less than 20%)
same,"Herbicidal effect by soil treatment, F: southern crabgrass",[23],0 (Herbicidal rate of 5% or less (almost no effect))
same,"herbicidal effect rating, B: Japanese bulrush",[25],0 (Herbicidal rate of 5% or less (almost no effect))
same,herbicidal effect on H: barnyard grass (evaluation grade 0-5),[26]; [32],0 (Herbicidal rate of 5% or less (almost no effect))
same,"Herbicidal effect by soil treatment, M: velvetleaf",[27],0 (Herbicidal rate of 5% or less (almost no effect))
same,herbicidal effect on G: green foxtail (evaluation grade 0-5),[28]; [32],0 (Herbicidal rate of 5% or less (almost no effect))

# Reference: patent US20230085307A1, “PYRIDAZINONE COMPOUND AND HERBICIDE” (NISSAN CHEMICAL CORPORATION, priority 2019, published 2023)
